# From patent publication US11951094B2, “TLR2 modulator compounds, pharmaceutical compositions and uses thereof” (Axial Therapeutics, Inc., priority 2020, dated 2024)
# Tests used:
# TLR2 [1] = target: T1, TLR2 (Mus musculus, UniProt Q9QUN7); experiment: TLR2 functional assay, cytokine release from RAW 264.7 mouse macrophage cell line; type: cell-based; conditions: average of all runs
# T1 construct: endogenous in cells; host or cells: RAW 264.7
# Procedure: Cells of the immune system respond to TLR agonists in part by secreting cytokines. Functional assays for TLR2 agonists measure cytokine release from purified immune cells or immortalized cell lines derived from immune cells. Cytokine release is measured by standard ELISA approaches or multiplexed analysis using the Meso Scale Discovery (MSD) platform.
# Purified primary human peripheral blood mononuclear cells or RAW 264.7 mouse macrophage cell line cells are plated at approximately 40,000 cells per well. Cells are treated with agonist compounds and assays 6-24 hours post-treatment for cytokines released into the cell culture media.
# Following assay measurements utilizing either HEK-Blue detection or cytokine release, all data is analyzed with the GraphPad Prism8 statistical package to determine EC50, binding and activity metrics for the TLR2 modulators.
# Numerous cell lines derived from various cell types can respond to TLR2 agonists with stereotyped cytokine and chemokine secretion. In particular, cell lines derived from macrophages respond robustly to TLR2 agonists by secreting a wide array of cytokines, including (but not limited to) TNF-alpha, IL-1, IL-10 and IL-12. The human monocytic cell line THP-1, the mouse macrophage line RAW-264.7, and the rat macrophage line NR8383 were used. For each assay, the respective cell lines were plated into 96-well plates overnight and then treated the following day with various TLR2-engaging compounds at varying concentrations. The next day, supernatants were collected and assayed by multiplex immunodetection for cytokines released (MSD detection kits for respective species).
# Data provided in Table 5 is generated using protocols described in Example 45 and 46.
# TLR2 [2] = target: TLR2 (Homo sapiens, UniProt O60603); experiment: TLR2 agonist screening assay, HEK-Blue TLR2 reporter cell line (NF-kB-driven SEAP, absorbance at 600 nm); type: cell-based; set-up: host or cells: HEK-293 (HEK-Blue TLR2 reporter cell line); conditions: HEK-Blue TLR2 reporter cells, agonist mode; average of all runs (Table 4)
# In short: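 Read-out: SEAP colour change, A600, after overnight agonist exposure. Cells: HEK-293 overexpressing TLR2, NF-kB-SEAP reporter, ~40,000/well, plated 16-24 h prior.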
# TLR2 (Homo sapiens, UniProt O60603), sequence (O60603 21-784): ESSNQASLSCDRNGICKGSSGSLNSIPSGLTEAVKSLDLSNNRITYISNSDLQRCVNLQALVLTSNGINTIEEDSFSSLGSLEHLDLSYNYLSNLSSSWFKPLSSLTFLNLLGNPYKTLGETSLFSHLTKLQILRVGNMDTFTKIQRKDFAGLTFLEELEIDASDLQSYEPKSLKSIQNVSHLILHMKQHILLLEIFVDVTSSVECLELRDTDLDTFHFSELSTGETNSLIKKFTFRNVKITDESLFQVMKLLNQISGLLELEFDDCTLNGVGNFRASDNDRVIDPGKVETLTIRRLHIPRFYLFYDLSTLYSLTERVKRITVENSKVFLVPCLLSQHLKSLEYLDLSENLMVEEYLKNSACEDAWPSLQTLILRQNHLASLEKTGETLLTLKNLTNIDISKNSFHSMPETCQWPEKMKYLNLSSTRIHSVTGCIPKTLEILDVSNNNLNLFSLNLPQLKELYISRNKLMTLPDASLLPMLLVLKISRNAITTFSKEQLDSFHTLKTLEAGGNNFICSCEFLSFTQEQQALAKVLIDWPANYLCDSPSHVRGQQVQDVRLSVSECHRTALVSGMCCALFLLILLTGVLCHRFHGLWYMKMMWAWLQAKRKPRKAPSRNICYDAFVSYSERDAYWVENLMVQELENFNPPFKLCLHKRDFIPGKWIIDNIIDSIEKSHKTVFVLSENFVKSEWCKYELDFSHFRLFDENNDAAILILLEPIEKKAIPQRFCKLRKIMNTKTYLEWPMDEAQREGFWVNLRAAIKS
# T1 sequence (Q9QUN7 25-784): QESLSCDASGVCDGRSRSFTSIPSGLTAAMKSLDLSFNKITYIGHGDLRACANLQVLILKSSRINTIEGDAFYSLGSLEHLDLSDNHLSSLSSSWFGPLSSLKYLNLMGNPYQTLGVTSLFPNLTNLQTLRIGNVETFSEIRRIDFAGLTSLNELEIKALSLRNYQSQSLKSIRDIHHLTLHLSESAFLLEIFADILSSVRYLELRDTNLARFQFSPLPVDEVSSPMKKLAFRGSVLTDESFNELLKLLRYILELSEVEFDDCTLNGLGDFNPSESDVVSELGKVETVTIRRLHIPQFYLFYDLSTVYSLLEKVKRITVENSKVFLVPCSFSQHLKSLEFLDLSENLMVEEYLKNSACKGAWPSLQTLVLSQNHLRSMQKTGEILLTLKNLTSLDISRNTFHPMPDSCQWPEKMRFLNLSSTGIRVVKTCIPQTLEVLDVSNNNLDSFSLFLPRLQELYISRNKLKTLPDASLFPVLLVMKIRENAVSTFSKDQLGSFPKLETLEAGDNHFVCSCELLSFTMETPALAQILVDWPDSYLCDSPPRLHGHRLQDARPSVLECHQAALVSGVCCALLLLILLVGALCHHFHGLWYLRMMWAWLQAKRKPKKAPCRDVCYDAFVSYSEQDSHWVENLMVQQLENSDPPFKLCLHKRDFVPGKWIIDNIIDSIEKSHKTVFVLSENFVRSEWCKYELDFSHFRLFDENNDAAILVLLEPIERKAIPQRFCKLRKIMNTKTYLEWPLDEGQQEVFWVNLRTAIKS
EC50 (TLR2 [1]) [nM],EC50 (TLR2 [2]) [nM],Compound
0.1 to 50,51 to 350,"CCCCCCNC(=O)[C@H](Cn1cnc(-c2ccc(C(=O)N3C[C@@H](C(=O)N[C@H]4C[C@@H]4c4ccccc4)[C@H](C(=O)N[C@H]4C[C@@H]4c4ccccc4)C3)cc2)c1)NC(=O)CCCCCC [Compound 214, (3S,4S)-1-(4-(1-((S)-2-heptanamido-3-(hexylamino)-3-oxopropyl)-1H-imidazol-4-yl)benzoyl)-N3,N4-bis((1S,2R)-2-phenylcyclopropyl)pyrrolidine-3,4-dicarboxamide]"
> 1000,0.1 to 50,"CCCCCCCCCCCCCNC(=O)N[C@H]1CN(C(=O)c2ccc(C(=O)N3C[C@@H](C(=O)N[C@H]4C[C@@H]4c4ccccc4)[C@H](C(=O)N[C@H]4C[C@@H]4c4ccccc4)C3)cc2)C[C@H]1OC [Compound 210, (3S,4S)-1-(4-((3R,4S)-3-methoxy-4-(3-tridecylureido)pyrrolidine-1-carbonyl)benzoyl)-N3,N4-bis((1S,2R)-2-phenylcyclopropyl)pyrrolidine-3,4-dicarboxamide]"
> 1000,0.1 to 50,"CCCCCCCCCOC(=O)N[C@@H](CNC(=O)c1ccc(C(=O)N2C[C@@H](C(=O)N[C@H]3C[C@@H]3c3ccccc3)[C@H](C(=O)N[C@H]3C[C@@H]3c3ccccc3)C2)cc1)C(=O)NCCCCCC [Compound 229, nonyl ((S)-3-(4-((3S,4S)-3,4-bis(((1S,2R)-2-phenylcyclopropyl)carbamoyl)pyrrolidine-1-carbonyl)benzamido)-1-(hexylamino)-1-oxopropan-2-yl)carbamate]"
> 1000,51 to 350,"CCCCCCCCCCCOC(=O)N[C@H]1CN(C(=O)c2ccc(C(=O)N3C[C@@H](C(=O)N[C@H]4C[C@@H]4c4ccccc4)[C@H](C(=O)N[C@H]4C[C@@H]4c4ccccc4)C3)cc2)C[C@@H]1OC [Compound 215, undecyl ((3S,4S)-1-(4-((3S,4S)-3,4-bis(((1S,2R)-2-phenylcyclopropyl)carbamoyl)pyrrolidine-1-carbonyl)benzoyl)-4-methoxypyrrolidin-3-yl)carbamate]"
0.1 to 50,0.1 to 50,"CCCCCCCC(=O)N[C@@H](Cn1cc(-c2ccc(C(=O)N3C[C@@H](C(=O)N[C@H]4C[C@@H]4c4ccccc4)[C@H](C(=O)N[C@H]4C[C@@H]4c4ccccc4)C3)cc2)nn1)C(=O)NCCCCCC [Compound 219, (3S,4S)-1-(4-(1-((S)-3-(hexylamino)-2-octanamido-3-oxopropyl)-1H-1,2,3-triazol-4-yl)benzoyl)-N3,N4-bis((1S,2R)-2-phenylcyclopropyl)pyrrolidine-3,4-dicarboxamide]"
> 1000,0.1 to 50,"CCCCCCCCCCCCOC(=O)N[C@H]1CN(C(=O)c2ccc(C(=O)N3C[C@@H](C(=O)N[C@H]4C[C@@H]4c4ccccc4)[C@H](C(=O)N[C@H]4C[C@@H]4c4ccccc4)C3)cc2)C[C@@H]1OC [Compound 216, dodecyl ((3S,4S)-1-(4-((3S,4S)-3,4-bis(((1S,2R)-2-phenylcyclopropyl)carbamoyl)pyrrolidine-1-carbonyl)benzoyl)-4-methoxypyrrolidin-3-yl)carbamate]"
> 1000,0.1 to 50,"CCCCCCCCCCCCCCC(=O)N[C@@H]1CN(C(=O)c2ccc(C(=O)N3C[C@@H](C(=O)N[C@H]4C[C@@H]4c4ccccc4)[C@H](C(=O)N[C@H]4C[C@@H]4c4ccccc4)C3)cc2)C[C@@H]1OC [Compound 209, (3S,4S)-1-(4-((3S,4R)-3-methoxy-4-pentadecanamidopyrrolidine-1-carbonyl)benzoyl)-N3,N4-bis((1S,2R)-2-phenylcyclopropyl)pyrrolidine-3,4-dicarboxamide]"

# Continued, molecule first:
Compound,EC50 (TLR2 [1]) [nM],EC50 (TLR2 [2]) [nM]
"CCCCCCCNC(=O)[C@H](CNC(=O)c1ccc(C(=O)N2C[C@@H](C(=O)N[C@H]3C[C@@H]3c3ccccc3)[C@H](C(=O)N[C@H]3C[C@@H]3c3ccccc3)C2)cc1)NC(=O)CCCCCCC [Compound 184, (3S,4S)-1-(4-(((S)-3-(heptylamino)-2-octanamido-3-oxopropyl)carbamoyl)benzoyl)-N3,N4-bis((1S,2R)-2-phenylcyclopropyl)pyrrolidine-3,4-dicarboxamide]",51 to 350,0.1 to 50
"CCCCCCCCCCCCCCC(=O)N[C@@H]1CCCN(C(=O)c2ccc(C(=O)N3C[C@@H](C(=O)N[C@H]4C[C@@H]4c4ccccc4)[C@H](C(=O)N[C@H]4C[C@@H]4c4ccccc4)C3)cc2)C1 [Compound 152, (3S,4S)-1-(4-((R)-3-pentadecanamidopiperidine-1-carbonyl)benzoyl)-N3,N4-bis((1S,2R)-2-phenylcyclopropyl)pyrrolidine-3,4-dicarboxamide]",> 1000,0.1 to 50
"CCCCCCCCCCCCNC(=O)N[C@H]1CN(C(=O)c2ccc(C(=O)N3C[C@@H](C(=O)N[C@H]4C[C@@H]4c4ccccc4)[C@H](C(=O)N[C@H]4C[C@@H]4c4ccccc4)C3)cc2)C[C@@H]1OC [Compound 188, (3S,4S)-1-(4-((3S,4S)-3-(3-dodecylureido)-4-methoxypyrrolidine-1-carbonyl)benzoyl)-N3,N4-bis((1S,2R)-2-phenylcyclopropyl)pyrrolidine-3,4-dicarboxamide]",351 to 1000,0.1 to 50
"CCCCCCCCCCCCCNC(=O)N[C@H]1CN(C(c2ccc(C(=O)N3C[C@@H](C(=O)N[C@H]4C[C@@H]4c4ccccc4)[C@H](C(=O)N[C@H]4C[C@@H]4c4ccccc4)C3)cc2)C(F)(F)F)C[C@@H]1OC (stereo partly drawn) [Compound 189, (3S,4S)—N3,N4-bis((1S,2R)-2-phenylcyclopropyl)-1-(4-(2,2,2-trifluoro-1-((3S,4S)-3-methoxy-4-(3-tridecylureido)pyrrolidin-1-yl)ethyl)benzoyl)pyrrolidine-3,4-dicarboxamide]",351 to 1000,0.1 to 50
"CCCCCCCCCCCCCNC(=O)N[C@@H](CNC(=O)c1ccc(C(=O)N2C[C@@H](C(=O)N[C@H]3C[C@@H]3c3ccccc3)[C@H](C(=O)N[C@H]3C[C@@H]3c3ccccc3)C2)cc1)COC [Compound 198, (3S,4S)-1-(4-(((S)-3-methoxy-2-(3-tridecylureido)propyl)carbamoyl)benzoyl)-N3,N4-bis((1S,2R)-2-phenylcyclopropyl)pyrrolidine-3,4-dicarboxamide]",> 1000,> 1000
"CCCCCCCCCCCCCNC(=O)N[C@@H]1CCCN(C(=O)c2ccc(C(=O)N3C[C@@H](C(=O)N[C@H]4C[C@@H]4c4ccccc4)[C@H](C(=O)N[C@H]4C[C@@H]4c4ccccc4)C3)cc2)C1 [Compound 205, (3S,4S)—N3,N4-bis((1S,2R)-2-phenylcyclopropyl)-1-(4-((R)-3-(3-tridecylureido)piperidine-1-carbonyl)benzoyl)pyrrolidine-3,4-dicarboxamide]",> 1000,0.1 to 50
"CCCCCCCCCCCCNC(=O)N[C@@H]1CCCN(C(=O)c2ccc(C(=O)N3C[C@@H](C(=O)N[C@H]4C[C@@H]4c4ccccc4)[C@H](C(=O)N[C@H]4C[C@@H]4c4ccccc4)C3)cc2)C1 [Compound 204, (3S,4S)-1-(4-((R)-3-(3-dodecylureido)piperidine-1-carbonyl)benzoyl)-N3,N4-bis((1S,2R)-2-phenylcyclopropyl)pyrrolidine-3,4-dicarboxamide]",> 1000,0.1 to 50
"CCCCCCCCCCCNC(=O)N[C@H]1CN(C(=O)c2ccc(C(=O)N3C[C@@H](C(=O)N[C@H]4C[C@@H]4c4ccccc4)[C@H](C(=O)N[C@H]4C[C@@H]4c4ccccc4)C3)cc2)C[C@@H]1OC [Compound 199, (3S,4S)-1-(4-((3S,4S)-3-methoxy-4-(3-undecylureido)pyrrolidine-1-carbonyl)benzoyl)-N3,N4-bis((1S,2R)-2-phenylcyclopropyl)pyrrolidine-3,4-dicarboxamide]",> 1000,0.1 to 50
"CCCCCCCCC(=O)N[C@@H](CNC(=O)c1ccc(C(=O)N2C[C@@H](C(=O)N[C@H]3C[C@@H]3c3ccccc3)[C@H](C(=O)N[C@H]3C[C@@H]3c3ccccc3)C2)cc1)C(=O)NCCCCCC [Compound 140, (3S,4S)-1-(4-(((S)-3-(hexylamino)-2-nonanamido-3-oxopropyl)carbamoyl)benzoyl)-N3,N4-bis((1S,2R)-2-phenylcyclopropyl)pyrrolidine-3,4-dicarboxamide]",51 to 350,0.1 to 50
"CCCCCCCNC(=O)N[C@@H](CNC(=O)c1ccc(C(=O)N2C[C@@H](C(=O)N[C@H]3C[C@@H]3c3ccccc3)[C@H](C(=O)N[C@H]3C[C@@H]3c3ccccc3)C2)cc1)C(=O)NCCCCCC [Compound 181, (3S,4S)-1-(4-(((S)-2-(3-heptylureido)-3-(hexylamino)-3-oxopropyl)carbamoyl)benzoyl)-N3,N4-bis ((1S,2R)-2-phenylcyclopropyl) pyrrolidine-3,4-dicarboxamide]",> 1000,0.1 to 50
